Assay results reported in patent US8097440B1, “Engineered microorganisms capable of producing target compounds under anaerobic conditions” (Gevo, Inc., priority 2008, dated 2012).
Where a chain is given by its changes, count along the chain named. Numbers in names are those of the source.

Legend:
[1] = molecular target: T1, E. coli KARI Ec_IlvC variant Ec_IlvC^S78D-his6 (S78D), SEQ ID NO: 17 (Escherichia coli, UniProt P05793, S78D); assay: KARI cuvette assay, purified Ec_IlvC^S78D-his6; format: biochemical; details: from 1075 μM to 130 μM
T1 sequence (P05793 with tags, fused parts or gaps S78D): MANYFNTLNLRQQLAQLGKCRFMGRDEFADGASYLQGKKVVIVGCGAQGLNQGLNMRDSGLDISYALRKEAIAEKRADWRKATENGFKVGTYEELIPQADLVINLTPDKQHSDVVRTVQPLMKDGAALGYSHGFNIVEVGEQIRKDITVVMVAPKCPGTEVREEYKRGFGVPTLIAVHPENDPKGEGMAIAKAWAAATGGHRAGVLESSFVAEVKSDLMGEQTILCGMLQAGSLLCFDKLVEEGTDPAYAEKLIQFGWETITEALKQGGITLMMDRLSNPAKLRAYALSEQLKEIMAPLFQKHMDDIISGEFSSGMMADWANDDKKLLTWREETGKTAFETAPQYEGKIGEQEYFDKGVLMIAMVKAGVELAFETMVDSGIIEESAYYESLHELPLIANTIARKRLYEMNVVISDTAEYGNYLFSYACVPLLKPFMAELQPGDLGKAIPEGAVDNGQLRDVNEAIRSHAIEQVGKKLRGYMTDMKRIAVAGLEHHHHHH
Method: (§1) KARI cuvette assay: KARI activity was assayed kinetically by monitoring the decrease in NAD(P)H concentration by measuring the absorbance at 340 nm. A reaction buffer was prepared containing 250 mM potassium phosphate pH 7, 1 mM DTT and 10 mM MgCl2. Cell pellets were resuspended (0.25 g wet weight/mL buffer) in 250 mM potassium phosphate (KPi) buffer containing 1 mM DTT and 10 mM MgCl2. The resuspended cells were lysed by sonication for 1 min with a 50% duty cycle and pelleted at 11000×g and 4° C. for 15 min. A reaction mixture consisting of 910 μl reaction buffer, 50 μl acetolactate, and 20 μl lysate was prepared in a cuvette. The reaction was initiated by addition of 20 μL of 10 mM NAD(P)H. A substrate free control was conducted using reaction buffer without the addition of acetolactate.
(§2) Purification of KARI: Cell pellets used for purification were resuspended in purification buffer A (20 mM Tris, 20 mM imidazol, 100 mM NaCl, 10 mM MgCl2, pH 7.4). KARI was purified by IMAC (Immobilized metal affinity chromatography) over a 1 ml Histrap High Performance (histrap HP) column pre-charged with Nickel (GE Healthcare) using an Akta FPLC system (GE Healthcare). […]

[2] = molecular target: T2, E. coli KARI Ec_IlvC variant Ec_IlvC^P2D1-A1-his6 (Ec_IlvC^P2D1-his6 with K433E), SEQ ID NO: 42 (Escherichia coli, UniProt P05793, A71S/D146G/G185R/K433E/Q110V/R76D/S78D); assay: KARI assay, purified Ec_IlvC^P2D1-A1-his6; format: biochemical; details: expressed in yeast GEVO1186, purified
T2 sequence (P05793 with tags, fused parts or gaps A71S/R76D/S78D/Q110V/D146G/G185R/K433E): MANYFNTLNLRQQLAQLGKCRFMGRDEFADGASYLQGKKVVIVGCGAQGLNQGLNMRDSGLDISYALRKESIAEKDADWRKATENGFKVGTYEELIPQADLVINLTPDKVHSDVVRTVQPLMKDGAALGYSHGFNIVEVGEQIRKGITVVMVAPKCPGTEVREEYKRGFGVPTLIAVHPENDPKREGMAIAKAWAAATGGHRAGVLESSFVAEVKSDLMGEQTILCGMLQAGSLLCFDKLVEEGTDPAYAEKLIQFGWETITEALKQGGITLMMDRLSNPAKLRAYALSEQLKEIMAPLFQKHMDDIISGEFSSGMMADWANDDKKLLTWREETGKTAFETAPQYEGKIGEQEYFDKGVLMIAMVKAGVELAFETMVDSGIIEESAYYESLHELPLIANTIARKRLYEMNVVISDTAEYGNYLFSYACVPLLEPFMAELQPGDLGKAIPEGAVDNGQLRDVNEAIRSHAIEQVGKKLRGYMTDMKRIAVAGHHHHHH
Method: as §1, §2

[3] = test system: Lactococcus lactis alcohol dehydrogenase Ll_AdhA, SEQ ID NO: 67; details: NADPH as cofactor; cited from earlier work
[4] = molecular target: T3, Escherichia coli KARI (ketol-acid reductoisomerase) Ec_IlvC^his6, wild type IlvC (SEQ ID NO: 13) with his6-tag, SEQ ID NO: 15 (Escherichia coli, UniProt P05793); assay: KARI cuvette assay, purified Ec_IlvC^his6 (parent / wild type); format: biochemical, E. coli; details: purified; acetolactate as substrate
T3 sequence (P05793 with tags, fused parts or gaps): T1 sequence (P05793 with tags, fused parts or gaps S78D) with D78S
Method: as §1, with “The reaction was initiated by addition of 20 μL of 10 mM NAD(P)H. A substrate free control was conducted using reaction buffer without the addition of acetolactate.” left out
Only 20% of the enzymes of the recombination library were active on NADH. After screening 1,000 clones using the NADH depletion assay at 340 nm, 26 KARI variants were selected for a rescreen by the high-throughput assay described in Example 14 and eight thereof were expressed in 25 ml LBamp medium in shake flasks according to the protocol for cell growth and protein expression in shake flasks as described in Example 14, purified according to the protocol for purification of KARI enzymes as described in Example 14, and NAD(P)H depletion at 340 nm was measured again. […] The KM values of variants Ec_llvC^2H10-his6 and Ec_llvC^6E6-his6 were measured and the catalytic efficiencies were calculated.

[5] = substrate: CC(C)C=O; assay: Alcohol dehydrogenase kinetic assay, Ec_YqhD; format: biochemical, E. coli; details: other: NADPH as cofactor; conversion to isobutanol
Method: E. coli strain GEVO1745 was transformed by electroporation with one of plasmids pGV1705-A, pGV1748-A, pGV1749-A, or pGV1778-A. 50 mL of TB medium (23.1 g/L KH2PO4, 125.4 g/L K2HPO4, 12 g/L Bacto-tryptone, 24 g/L yeast extract, 4 ml/L glycerol) were inoculated to an initial OD600 of 0.2 using a 3 mL overnight LB culture of a single colony. The 50 mL culture was allowed to grow for 3-4 hrs at 250 rpm and 37° C. Protein expression was induced at an OD600 of 2-2.5 by the addition of IPTG to a final concentration of 1 mM. After the addition of IPTG, protein expression was allowed to continue for 20-24 hours at 225 rpm and 25° C.
Alcohol dehydrogenase (ADH) activity was assayed kinetically by monitoring the decrease in NAD(P)H concentration by measuring the absorbance at 340 nm. A reaction buffer was prepared containing 0.1 M potassium phosphate, 0.4 mM NAD(P)H, 10 mM isobutyraldehyde, 1 mM DTT, and 1 mM PMSF. Cell pellets were resuspended in 0.1 M potassium phosphate buffer containing 1 mM DTT and 1 mM PMSF at one fifth of the culture volume, i.e. 10 mL resuspension buffer for cell pellet from a 50 mL culture. The resuspended cells were lysed by sonication for 1 min with a 50% duty cycle. The reaction was initiated by the addition of 0.5 mL of the reaction buffer to 0.5 mL of clarified lysate in a cuvette. […]

[6] = substrate: NC(=O)C1=CN([C@@H]2O[C@H](COP(=O)(O)OP(=O)(O)OC[C@H]3O[C@@H](n4cnc5c(N)ncnc54)[C@H](O)[C@@H]3O)[C@@H](O)[C@H]2O)C=CC1; assay: KARI cuvette assay, purified Ec_IlvC^S78D-his6; format: biochemical, E. coli
Method: as §1
(§3) Purification of KARI: Cell pellets used for purification were resuspended in purification buffer A (20 mM Tris, 20 mM imidazol, 100 mM NaCl, 10 mM MgCl2, pH 7.4). KARI was purified by IMAC (Immobilized metal affinity chromatography) over a 1 ml Histrap High Performance (histrap HP) column pre-charged with Nickel (GE Healthcare) using an Akta FPLC system (GE Healthcare). The column was equilibrated with four column volumes (cv) of buffer A. After injecting the crude extract, the column was washed with buffer A for 2 cv, followed by a wash step with a mixture of 10% elution buffer B (20 mM Tris, 300 mM imidazol, 100 mM NaCl, 10 mM MgCl2, pH 7.4) for 5 cv. KARI variants were eluted at 40% buffer B and stored at 4° C.
(§4) Five individual site saturation libraries were generated and electro-competent E. coli BL21(DE3) cells were transformed with the desalted ligation mixtures. 88 clones of each library were screened for NAD(P)H depletion at 340 nm in microplates. Clones with an improved NADH/NADPH consumption ratio while maintaining or increasing their NADH activity were chosen for a rescreen. Variants that passed the rescreen were sequenced, expressed in shake flasks, purified, and characterized. […]

[7] = substrate: NC(=O)C1=CN([C@@H]2O[C@H](COP(=O)(O)OP(=O)(O)OC[C@H]3O[C@@H](n4cnc5c(N)ncnc54)[C@H](OP(=O)(O)O)[C@@H]3O)[C@@H](O)[C@H]2O)C=CC1; assay: KARI cuvette assay, purified Ec_IlvC^S78D-his6; format: biochemical, E. coli; details: other: purified
Method: as §1, §3, §4

In the case of `NC(=O)C1=CN([C@@H]2O[C@H](COP(=O)(O)OP(=O)(O)OC[C@H]3O[C@@H](n4cnc5c(N)ncnc54)[C@H](OP(=O)(O)O)[C@@H]3O)[C@@H](O)[C@H]2O)C=CC1` [NADPH, nicotinamide adenine dinucleotide phosphate], the “decrease of KM value compared to wild-type” value [1] is reported as 16 fold, the Km [2] is reported as > 1430 µM and the kcat/KM [2] is reported as <377 M^−1 * S^−1. For the same molecule, the “activity when tested with NADPH as a cofactor” value [3] was “^adid not show any detectably activity when tested with NADPH as a cofactor” and the kcat/KM [4] was 87,300 M^−1 * s^−1.

B1: E. coli alcohol dehydrogenase Ec_YqhD, SEQ ID NO: 69 (Escherichia coli K-12) (protein)
chain: MNNFNLHTPTRILFGKGAIAGLREQIPHDARVLITYGGGSVKKTGVLDQVLDALKGMDVLEFGGIEPNPAYETLMNAVKLVREQKVTFLLAVGGGSVLDGTKFIAAAANYPENIDPWHILQTGGKEIKSAIPMGCVLTLPATGSESNAGAVISRKTTGDKQAFHSAHVQPVFAVLDPVYTYTLPPRQVANGVVDAFVHTVEQYVTKPVDAKIQDRFAEGILLTLIEDGPKALKEPENYDVRANVMWAATQALNGLIGAGVPQDWATHMLGHELTAMHGLDHAQTLAIVLPALWNEKRDTKRAKLLQYAERVWNITEGSDDERIDAAIAATRNFFEQLGVPTHLSDYGLDGSSIPALLKKLEEHGMTQLGENHDITLDVSRRIYEAAR
Work on B1 yielded a Km [5] of 250 µM.

B2: E. coli KARI Ec_IlvC variant Ec_IlvC^S78D-his6 (S78D), SEQ ID NO: 17 (Escherichia coli K-12; S78D) (protein)
chain: T1 sequence (P05793 with tags, fused parts or gaps S78D)
With B2 the kcat/Km ([6]; other: purified, acetolactate as substrate) was 27,600 M^−1 * s^−1, the kcat/Km ([6]; with NADH) was 3770 M⁻¹ s⁻¹ and the Km [7] was 130 µM.
